Results taken from PubChem BioAssay (NCI).
Where “and” joins values, the source holds several entries; their conditions need not be identical. Equal entries are not always repeated.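 Tested at 5 concentrations; 48 h exposure; 96-well plates; endpoints linearly interpolated, else capped at highest concentration. GI50: concentration for 50% inhibition of growth. TGI marks complete inhibition of growth.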

Columns and labels:
Assay in all cases: inhibition of tumour cell growth, NCI panel, 48 h
[1] = test system: OVCAR-5 ovarian
[2] = test system: UACC-257 melanoma
[3] = test system: BT-549 breast
[4] = test system: TK-10 renal
[5] = test system: NCI-H522 lung
[6] = test system: SN12C renal
[7] = test system: HCT-116 colon
[8] = test system: MDA-MB-231 breast
[9] = test system: SK-MEL-2 melanoma
[10] = test system: HL-60(TB) leukemia

| Structure (SMILES) | GI50 [1] [µM] | TGI [1] | GI50 [2] [µM] | TGI [2] | GI50 [3] [µM] | TGI [3] | GI50 [4] [µM] | TGI [4] | GI50 [5] [µM] | TGI [5] | GI50 [6] [µM] | TGI [6] | GI50 [7] [µM] | TGI [7] | GI50 [8] [µM] | TGI [8] | GI50 [9] [µM] | TGI [9] | GI50 [10] [µM] | TGI [10] |
| --- | --- | --- | --- | --- | --- | --- | --- | --- | --- | --- | --- | --- | --- | --- | --- | --- | --- | --- | --- | --- |
| CN(C)CCCSc1ccccc1NC1=C(Cl)C(=O)C(Nc2ccccc2SCCCN(C)C)=C(Cl)C1=O | 1.78 | 3.29 µM | 1.96 | 3.45 µM | 1.46 | 2.87 µM | 2.22 | 3.7 µM | 1.07 | 2.89 µM | 1.72 | 3.18 µM | 1.52 | 2.93 µM | 1.78 | 3.38 µM | 2.3 | 5.48 µM | 0.69 | 2.91 µM |
| CCOC(=O)C1=C(C)NC(=O)NC1CN1C(=O)c2ccccc2C1=O (stereo not given) | > 100 | > 100 µM | > 100 | > 100 µM | > 100 | > 100 µM | > 100 | > 100 µM | > 100 | > 100 µM | > 100 | > 100 µM | > 100 | > 100 µM | > 100 | > 100 µM | > 100 | > 100 µM | > 100 | > 100 µM |
| CC1(C)N=C(N)N=C(N)N1c1ccc(Cl)cc1 | 0.854 | > 100 µM | 75 | > 100 µM | 14.6 | > 100 µM | 9.9 | > 100 µM | 14.6 | > 100 µM | 7.25 | > 100 µM | 0.627 | > 100 µM | > 100 | > 100 µM | > 100 | > 100 µM | > 100 | > 100 µM |
| C=CC(=O)N1C[C@@H]2CCOc3c(Cl)c(-c4c(O)cccc4F)c(F)c4ncnc(c34)N2C[C@H]1C | 16.3 | 31.1 µM | 13 | 30.3 µM | 2.48 | 12.9 µM | 16.1 | 33.3 µM | 14.2 | 30.9 µM | 13 | 31.3 µM | 11.2 | 24.5 µM | 11.5 | 27.7 µM | 14 | 28.7 µM | 4.81 | 33.1 µM |
| CN(C)CC(=O)Nc1ccc2ncnc(Nc3ccc(Oc4cccc(C(F)(F)F)c4)c(Cl)c3)c2c1 | 3.04 | 12.9 µM | 2.05 | 4.25 µM | 3.91 | 17.3 µM | 1.71 | 5.03 µM | 1.8 | 5.37 µM | 2.85 | 10.5 µM | 1.65 | 3.03 µM | 1.54 | 3.29 µM | 2.04 | 4.37 µM | 2.09 | 4.94 µM |
| Cn1c(=O)nc2n(-c3ccc(Cl)cc3)c3cc(Cl)ccc3nc-2c1=O |  | 29.1 µM |  | 3.51 µM |  | 7.17 µM |  | 37 µM |  | 6.36 µM |  | 13.9 µM |  | 10 µM |  | 6.91 µM |  | 5.63 µM |  | 5.66 µM |
| O=c1c2ccccc2c(/C=N\NC2=NCCN2)c2oc3ccccc3n12 | 19.8 | 37.1 µM | > 100 | > 100 µM | 31.3 | > 100 µM | 16.3 | 31.3 µM | 16.2 | 67.6 µM | 11.2 | 27.7 µM | 19.1 | > 100 µM | 16.7 | 35 µM | 21.8 | 87.6 µM | 25.3 | 92.6 µM |
| COc1ccc(NC2=C(I)C(=O)c3ncccc3C2=O)cc1 | 1.69 | 3.15 µM | 1.35 | 2.72 µM | 1.27 | 2.59 µM | 2.14 | 3.96 µM | 0.827 | 2.53 µM | 1.05 | 2.27 µM | 0.494 | 2.51 µM | 2.08 | 7.64 µM | 1.49 | 3.18 µM | 1.94 | 4.34 µM |
| O=c1cnnc(N/N=C/c2ccccc2O)[nH]1 | 1.22 | > 100 µM | 0.489 | 6.8 µM | 6.36 | > 100 µM | 8.26 | > 100 µM | 1.26 | > 30.5 µM | 4.21 | > 100 µM | 0.0337 | > 100 µM | 4.37 | > 100 µM | 21 | > 100 µM | 2.91 | 21.8 µM |
| C#Cc1cccc(Nc2ncnc3ccc(OCCCCNCCS(C)(=O)=O)cc23)c1 | 4.93 | > 25 µM | 4.39 | 8.38 µM | 8.33 | > 25 µM | 0.238 | 6.27 µM | 2.97 | 7.86 µM | 5.89 | > 25 µM | 6.81 | > 18.7 µM | 5.11 | 11.7 µM | 7.75 | 17.8 µM | 5.37 | 11.3 µM |
| CC1=C(C)C(=O)O[C@@H]([C@](C)(O)[C@]2(O)CC[C@@]3(O)[C@@H]4C[C@H](O)[C@]5(O)[C@@H](O)C=CC(=O)[C@]5(C)[C@H]4CC[C@]23C)C1 |  | > 100 µM |  | > 100 µM |  | > 100 µM |  | > 100 µM |  | > 100 µM |  | > 100 µM |  | > 100 µM |  | > 100 µM |  | > 100 µM |  | 56.8 µM |
| Oc1ccc2ccccc2c1N=Nc1cc(Cl)ccc1Cl |  | > 50 µM |  | > 50 µM |  | > 50 µM |  | 35.9 µM |  | > 50 µM |  | > 50 µM |  | 48.1 µM |  | 27.9 µM |  | > 50 µM |  | > 50 µM |
| O=C(C=P(c1ccccc1)(c1ccccc1)c1ccccc1)CCl | 1.46 | 3.73 µM | 1.14 | 2.59 µM | 1.89 | 7.14 µM | 1.69 | 3.12 µM | 0.396 | 1.64 µM | 1.46 | 4.53 µM | 0.416 | 1.6 µM | 1.22 | 3.03 µM | 1.79 | 3.87 µM | 1.31 | 6.12 µM |
| N#CC1=C(N)NC(=S)NC12Nc1ccccc1S2 (stereo not given) | 75.7 | > 100 µM | 29 | > 100 µM | 18.6 | 53 µM | 41.5 | > 100 µM | 21.3 | 70.5 µM | 20.5 | 63.6 µM | > 100 | > 100 µM | 16.4 | 70.6 µM | 44.2 | > 100 µM | 33.6 | 79.2 µM |
| O=Nc1c(-c2c(O)[nH]c3cc(Br)ccc23)[nH]c2ccccc12 | 2.25 | 4.35 µM | 2.05 | 3.95 µM | 0.716 | 2.79 µM | 0.954 | 5.12 µM | 1.1 | 4.54 µM | 0.785 | 3.86 µM | 0.883 | 2.27 µM | 1.82 | 5.31 µM | 1.11 | 3.41 µM | 2.75 | > 32.3 µM |
| COc1ccc(C(=NN=C(N)N)c2ccc(OC)cc2)cc1 | 5.1 | 21.6 µM | 7.24 | 25.1 µM | 3.94 | 15.6 µM | 4.26 | 14.5 µM | 2.9 | 13.4 µM | 3.15 | 15.5 µM | 3.15 | 12.4 µM | 3.88 | 17.1 µM | 2.51 | 12.6 µM | 2.53 | 8.48 µM |
| O=C1C=CC(=C(c2ccccc2)c2ccc(O)cc2)C=C1 |  | 49.7 µM |  | 31.7 µM |  | 18.7 µM |  | 37.4 µM |  | 28.2 µM |  | 29.7 µM |  | > 100 µM |  | 32.4 µM |  | 32 µM |  | 47.2 µM |
| Cc1cnc2oc3ccc(O)cc3c2c1-c1ccccc1 | > 100 | > 100 µM | > 100 | > 100 µM | 19.8 | 98.8 µM | 20.3 | > 100 µM | 44.9 | > 100 µM | 10 | 47.3 µM | > 100 | > 100 µM | 3.54 | > 100 µM | > 100 | > 100 µM | > 100 | > 100 µM |
| COc1c(/C=C/C=O)cc2c(c1OC)OCO2 |  | > 100 µM |  | > 100 µM |  | > 100 µM |  | > 100 µM |  | > 100 µM |  | 59.3 µM |  | > 100 µM |  | 80 µM |  | 57.4 µM |  | 53.1 µM |
| N#CC(C#N)=C1CCOc2ccc(F)cc21 | 16.4 | 39.9 µM | > 100 | > 100 µM | 53.4 | > 100 µM | 14.1 | 33.3 µM | > 100 | > 100 µM | 19.8 | 40.1 µM | 8.86 | 21 µM | 13 | 25.7 µM | > 100 | > 100 µM | 66.5 | > 100 µM |
| COc1cc(/C=C2\CCC/C(=C\c3ccc(O)c(OC)c3)C2=O)ccc1O | 2.3 | 26.6 µM and 5.67 µM | 1.71 | 27 µM and 6.74 µM | 1.76 | 14.2 µM and 3.28 µM | 2.8 | 37.2 µM and 11.6 µM | 1.12 | 3.23 µM and 2.66 µM | 1.87 | 6.33 µM and 5.01 µM | 1.45 | 5 µM and 2.75 µM | 2.85 | 25.7 µM and 11.1 µM | 1.96 | 12.7 µM and 4.94 µM | 0.397 | 10.7 µM and 10.8 µM |
| COC1=C(C)C(=O)c2c(c(CCCl)c3n2CCC3OC(C)=O)C1=O (stereo not given) | 0.325 | 9.32 µM | 0.227 | 0.733 µM | 0.149 | 0.652 µM | 0.26 | 0.626 µM | 0.192 | 0.85 µM | 0.391 | 15.4 µM | 0.791 | > 22.8 µM | 17.5 | 61.7 µM | 0.319 | 1 µM | 2.43 | 33.6 µM |
| CC(=O)CC/C=C(\C)[C@H](O)[C@H](C)C(=O)O[C@H]1C[C@H](C)C=C2C=C[C@@]3(C)O[C@@H](O)CC(=O)[C@]3(C)[C@H]21 | 1.04 | 6.62 µM | 0.589 | 4.48 µM | 0.781 | 3.76 µM | 0.942 | 5.5 µM | 0.566 | 4.19 µM | 0.324 | 2.43 µM | 0.307 | 1.89 µM | 0.558 | 3.07 µM | 0.419 | 1.91 µM | 1.42 | 4.22 µM |
| Cc1ccc(C=C2C(Cl)=C(Cl)C(Cl)=C2Cl)cc1 | 0.978 | 2.49 µM | 1.58 | 4.32 µM | 0.882 | 3.32 µM | 0.972 | 2.55 µM | 0.322 | 1.01 µM | 0.832 | 3.02 µM | 0.358 | 1.04 µM | 1.22 | 4.76 µM | 1.9 | 4.87 µM | 0.363 | 1.53 µM |
| CCCCCCn1c(SC)nc(COC(=O)NC)c1COC(=O)NC |  | 34.6 µM |  | 37.8 µM |  | 34 µM |  | 31.2 µM |  | 23.5 µM |  | 31.3 µM |  | 31.7 µM |  | 32.8 µM |  | 49.9 µM |  | 56 µM |
| Cn1cc(C2=C(c3cn(-c4ccccc4)c4ccccc34)C(=O)NC2=O)c2ccccc21 | > 25 | > 25 µM | > 25 | > 25 µM | 16.2 | > 25 µM | > 25 | > 25 µM | 6.61 | > 25 µM | 15.8 | > 25 µM | 11 | > 25 µM | > 23.3 | > 25 µM | 9.14 | > 25 µM | 8.91 | > 25 µM |
| NC(=S)N/N=C1\c2ccccc2-c2c(F)c(F)c(F)c(F)c21 | 13.6 | 30.5 µM | 2.93 | 9.38 µM | 4.92 | 10.7 µM | 5.7 | 15.9 µM | 0.321 | 1.21 µM | 7.31 | 20 µM | 1.67 | 3.15 µM | 4.21 | 10.7 µM | 5.38 | 21.7 µM | 3.58 | 16 µM |
